Read-outs that look alike come from different tables or passages of the source.
What was measured:
Capan-1 tumors = test: Capan-1 xenograft therapy; format: in vivo, mouse; conditions: 0.2 mg/kg SN-38 twice weekly x 4 weeks
Experimental: NCr female athymic nude (nu/nu) mice, 4 to 8 weeks old, and male Swiss-Webster mice, 10 weeks old, were purchased from Taconic Farms. Tolerability studies were performed in Cynomolgus monkeys (Macaca fascicularis; 2.5-4 kg male and female) by SNBL USA, Ltd. Animals were implanted subcutaneously with different human cancer cell lines. Tumor volume (TV) was determined by measurements in 2 dimensions using calipers, with volumes defined as: L×w^2/2, where L is the longest dimension of the tumor and w is the shortest. […] This dosing frequency reflected a consideration of the conjugate's serum half-life […], to allow a more continuous exposure to the ADC.
Statistics—Growth curves are shown as percent change in initial TV over time. Statistical analysis of tumor growth was based on area under the curve (AUC). Profiles of individual tumor growth were obtained through linear-curve modeling. An f-test was employed to determine equality of variance between groups before statistical analysis of growth curves. A 2-tailed t-test was used to assess statistical significance between the various treatment groups and controls, except for the saline control, where a 1-tailed t-test was used (significance at P≤0.05). Statistical comparisons of AUC were performed only up to the time that the first animal within a group was euthanized due to progression.

BxPC-3 [1] = test: Cytotoxicity (MTS), Example 6, BxPC-3; format: cell-based, human; conditions: BxPC-3, 96 h
Experimental: (§1) One day prior to adding the ADCs, cells were harvested from tissue culture and plated into 96-well plates. […] Plates were incubated at 37° C. for 96 h. […] Growth inhibition was measured as a percent of growth relative to untreated cells using Microsoft Excel and Prism software (non-linear regression to generate sigmoidal dose response curves which yield IC50-values.

small-cell lung cancer = format: in vivo, human
Description: This is a person with a diagnosis of small-cell lung cancer, involving their left lung, mediastinal lymph nodes, and MRI evidence of a metastasis to the left parietal brain lobe. Prior chemotherapy includes carboplatin, etoposide, and topotecan, but with no response noted. Radiation therapy also fails to control their disease.

MDA-MB-231 = conditions: mouse, in vivo
Capan-1 = test: In vitro cytotoxicity, Capan-1
Description: (§2) Cell lines, antibodies, and chemotherapeutics—All human cancer cell lines used in this study were purchased from the American Type Culture Collection.

NCI-N87 = test: Cytotoxicity (MTS), Example 6, NCI-N87; format: cell-based, human; conditions: NCI-N87, 96 h
Experimental: as §1

BxPC-3 [2] = test: In vitro cytotoxicity, BxPC-3
Description: as §2

Calu-3 = test: In vitro cytotoxicity, Calu-3
Description: as §2

[3] = system: human gastric carcinoma xenograft, NCI-N87; test: NCI-N87 gastric carcinoma xenograft, Example 17; format: in vivo, mouse
Description: In Vivo Therapeutic Studies—NCr female athymic nude (nu/nu) mice, 4-8 weeks old, were purchased from Taconic Farms (Germantown, NY). NCI-N87 gastric tumor xenografts were established by harvesting cells from tissue culture and making a final cell suspension 1:1 in matrigel (BD Bioscience; San Jose, CA), with each mouse receiving a total of 1×10^7 cells s.c. in the right flank. For BxPC-3. xenografts of 1 g were harvested, and a tumor suspension made in HBSS to a concentration of 40% tumor w/v. This suspension was mixed 1:1 with matrigel for a final tumor suspension of 20% w/v. […] For IHC, tumors were allowed to grow to approximately 0.5 cm^3 before the mice were euthanized and the tumors removed, formalin-fixed and paraffin-embedded. For therapy studies, mice were randomized into treatment groups and therapy begun when tumor volumes were approximately 0.25 cm^3.
Mice were euthanized and deemed to have succumbed to disease once tumors grew to greater than 1.0 cm^3 in size. […] Time to progression (TTP) was determined as time post-therapy initiation when the tumor grew more than 20% in size from its nadir.
Survival studies were analyzed using Kaplan-Meier plots (log-rank analysis), using the Prism GraphPad Software (v4.03) software package (Advanced Graphics Software, Inc., Encinitas, CA).

TNBC = format: in vivo, human
Experimental: Medical History—The patient is a person who was first diagnosed in October 2007 with a 1.8 cm mass in their right breast. They underwent a right mastectomy with a sentinel node biopsy (no malignancy in nodes). The tumor was determined to be negative for ER, PR and Her-2 (i.e., TNBC). They proceeded with 4 cycles of AC (doxorubicin and cyclophosphamide) therapy, followed by weekly low dose paclitaxel (×12). […] They had local surgery to remove the node and then received XRT (radiation therapy) through March 2009. In June 2010 CT documented recurrent pulmonary and bone involvement. The patient enrolled in a clinical trial using AVASTIN® (bevacizumab), METMAB® (onartuzumab, […]), and TAXOL® (paclitaxel), which they were maintained on until March 2013, having a complete response, but eventual progression of peripheral lung nodule and node in AP (aortopulmonary) window. In September 2014, they started on PD-L1 antibody (MPDL3280A) for 6 cycles, but progressed in January 2015.
2015 at a dose of 10 mg/kg, and has continued to receive this dose without reduction or delay in planned schedule now for 40+ doses.

[4] = system: triple-negative breast cancer

IMMU-132
tumor growth vs untreated and hA20-CL2A-SN-38 (Capan-1 tumors): significantly inhibited tumor growth
tumor-free mice at end of study (Capan-1 tumors; day 140): 50%
IC50 (BxPC-3 [1]): 2.6 nM
shrinkage of target left lung mass (small-cell lung cancer; 18 mg/kg once every three weeks, after fifth infusion): 13%
reduction of brain metastasis (small-cell lung cancer; after another 3 months): 21%
reduction of left lung mass (small-cell lung cancer; after another 3 months): 25%
reduction of brain metastasis (small-cell lung cancer; after fifth infusion): 10%
adverse events after second dose (small-cell lung cancer; in vivo): hypotension and a Grade 2 neutropenia
specific therapeutic effects (MDA-MB-231): specific therapeutic effects with IMMU-132 were not achieved
IC50 (Capan-1): 6.99 nM
IC50 (NCI-N87): 3.6 nM
IC50 (BxPC-3 [2]): 4.03 nM
IC50 (Calu-3): 9.97 nM
anti-tumor effects vs non-specific control ([3]; 17.5 mg/kg, twice weekly x 4 weeks): significant anti-tumor effects
median survival time (MST) ([3]; 14 days for saline control): 66 days
mean time to progression (TTP) ([3]; mouse, in vivo): 41.7 ± 4.2 days
partial responders, mice ([3]; mouse, in vivo): 6 of 7
Best Response, shrinkage (TNBC; 10 mg/kg): 54%
Best Response (TNBC; 10 mg/kg, patient progressed after PD-L1 therapy): Partial response, confirmed
decrease in sum of target lesion diameters (TNBC; CT 7 Apr. 2015, first assessment): 33%
decrease in sum of target lesion diameters (TNBC; CT 13 Sep. 2015): 52%
decrease in sum of target lesion diameters (TNBC; CT 15 November): 54%
decrease in sum of target lesion diameters (TNBC; CT 18 May 2015): 48%
decrease in sum of target lesion diameters (TNBC; CT 19 Jul. 2015): 50%
decrease in sum of target lesion diameters (TNBC; CT 25 Feb. 2016): 46%
time to progression (TNBC; not reached): ≥ 12.4 months
decrease in sum of long diameter of target lesions ([4]; after 3 therapy cycles, 12 mg/kg then 9 mg/kg): 43%
response ([4]; first response assessment): partial response by RECIST criteria

From patent US20240352145A1, “EFFICACY OF ANTI-TROP-2-SN-38 ANTIBODY DRUG CONJUGATES FOR THERAPY OF TUMORS RELAPSED/REFRACTORY TO CHECKPOINT INHIBITORS” (Immunomedics, Inc., priority 2016, published 2024)
